Experimental data published in patent publication US9546168B2, “ERK inhibitors” (Merck Sharp & Dohme Corp., priority 2013, dated 2017).
pIC50: −log10 of the molar value.

target: phosphorylated active hERK2 enzyme (Homo sapiens (Human), UniProt P28482); assay: Active Human ERK2 (hERK2) Activity Assay (IMAP-FP); type: biochemical; conditions: 0.5 nM hERK2, 30 μM ATP, 10 point titration
Description: Active Human ERK2 (hERK2) Activity Assay:
Activated ERK2 activity was determined in an IMAP-FP assay (Molecular Devices). Using this assay format, the potency (IC50) of each compound was determined from a 10 point (1:3 serial dilution, 3 μM starting compound concentration) titration curve using the following outlined procedure. […] Following a 15 minute compound & enzyme incubation, each reaction was initiated by the addition of 10 μL kinase buffer containing 2.45 μM ERK2 IMAP substrate peptides and 75 μM ATP. The final reaction in each well of 25 μL consists of 0.5 nM hERK2, 900 nM unlabeled peptide, 80 nM labeled-peptide, and 30 μM ATP. Phosphorylation reactions were allowed to proceed for 60 minutes and were immediately quenched by the addition of 60 μL IMAP detection beads (1:1000 dilutions) in IMAP binding buffer (Molecular Devices) with 24 mM NaCl. Plates were read on EnVision reader after 60 minutes binding equilibration using Fluorescence Polarization protocol (Perkin Elmer).

Sequence of phosphorylated active hERK2 enzyme (P28482 whole entry): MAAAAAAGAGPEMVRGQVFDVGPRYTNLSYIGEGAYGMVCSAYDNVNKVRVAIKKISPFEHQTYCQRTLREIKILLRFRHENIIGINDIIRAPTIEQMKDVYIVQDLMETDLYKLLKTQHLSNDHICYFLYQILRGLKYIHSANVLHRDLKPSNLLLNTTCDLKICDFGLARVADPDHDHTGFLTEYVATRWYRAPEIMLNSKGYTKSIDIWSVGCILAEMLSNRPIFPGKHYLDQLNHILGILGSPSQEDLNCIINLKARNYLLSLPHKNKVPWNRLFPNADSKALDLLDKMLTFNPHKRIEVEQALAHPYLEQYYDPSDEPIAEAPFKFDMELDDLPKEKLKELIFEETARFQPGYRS

Row | SMILES | pIC50
1 | CC(C)(O)[C@@H](NC(=O)Nc1cc2[nH]nc(C3CC3)c2c(CO)n1)c1ccccc1 [Example 6, 1-[3-cyclopropyl-4-(hydroxymethyl)-1H-pyrazolo[4,3-c]pyridin-6-yl]-3-[(1S)-2-hydroxy-2-methyl-1-phenylpropyl]urea] | 8.36
2 | CC(C)(C)[C@@H](NC(=O)Nc1cc2[nH]nc(-c3ccc(F)cc3)c2c(CO)n1)c1ccccc1 [Example 17, 1-[(1R)-2,2-dimethyl-1-phenylpropyl]-3-[3-(4-fluorophenyl)-4-(hydroxymethyl)-1H-pyrazolo[4,3-c]pyridin-6-yl]urea] | 8.06
3 | CC(C)(O)[C@@H](NC(=O)Nc1cc2[nH]nc(-c3ccc(F)cc3)c2c(CO)n1)c1ccccc1 [Example 13, 1-[3-(4-fluorophenyl)-4-(hydroxymethyl)-1H-pyrazolo[4,3-c]pyridin-6-yl]-3-[(1S)-2-hydroxy-2-methyl-1-phenylpropyl]urea] | 9.51
4 | C[C@@H](O)[C@@H](NC(=O)Nc1cc2[nH]nc(C3CC3)c2c(CO)n1)c1ccccc1 [Example 9, 1-[3-cyclopropyl-4-(hydroxymethyl)-1H-pyrazolo[4,3-c]pyridin-6-yl]-3-[(1S,2R)-2-hydroxy-1-phenylpropyl]urea] | 9.12
5 | CC(C)(O)[C@@H](NC(=O)Nc1cc2[nH]nc(-c3ccccc3)c2c(CO)n1)c1ccccc1 [Example 18, 1-[(1S)-2-hydroxy-2-methyl-1-phenylpropyl]-3-[4-(hydroxymethyl)-3-phenyl-1H-pyrazolo[4,3-c]pyridin-6-yl]urea] | 9.43
6 | CC(C)(O)[C@@H](NC(=O)Nc1cc2[nH]nc(-c3ccc(C#N)cc3)c2c(CO)n1)c1ccccc1 [Example 19, 1-[3-(4-cyanophenyl)-4-(hydroxymethyl)-1H-pyrazolo[4,3-c]pyridin-6-yl]-3-[(1S)-2-hydroxy-2-methyl-1-phenylpropyl]urea] | 9.28
7 | CC(C)(O)[C@@H](NC(=O)Nc1cc2[nH]nc(-c3ccc(F)cc3)c2c(CO)n1)c1ccc(F)cc1 [Example 15, 1-[(1S)-1-(4-fluorophenyl)-2-hydroxy-2-methylpropyl]-3-[3-(4-fluorophenyl)-4-(hydroxymethyl)-1H-pyrazolo[4,3-c]pyridin-6-yl]urea] | 9.54
8 | C[C@@H](NC(=O)Nc1cc2[nH]nc(C3CC3)c2c(CO)n1)c1ccccc1 [Example 5, (R)-1-(3-cyclopropyl-4-(hydroxymethyl)-1H-pyrazolo[4,3-c]pyridin-6-yl)-3-(1-phenylethyl)urea] | 9.14
9 | COCc1nc(NC(=O)N[C@H](C)c2ccccc2)cc2[nH]nc(-c3ccnc(C)c3)c12 [Example 20, (R)-1-(4-(Methoxymethyl)-3-(2-methylpyridin-4-yl)-1H-pyrazolo[4,3-c]pyridin-6-yl)-3-(1-phenylethyl)urea] | 8.95
10 | Cc1cc(-c2n[nH]c3cc(NC(=O)N[C@H](C)c4ccccc4)nc(CO)c23)ccn1 [Example 4, (R)-1-(4-(hydroxymethyl)-3-(2-methylpyridin-4-yl)-1H-pyrazolo[4,3-c]pyridin-6-yl)-3-(1-phenylethyl)urea] | 9.41
11 | C[C@@H](NC(=O)Nc1cc2[nH]nc(-c3ccnc(C#N)c3)c2c(CO)n1)c1ccccc1 [Example 12, 1-[3-(2-cyanopyridin-4-yl)-4-(hydroxymethyl)-1H-pyrazolo[4,3-c]pyridin-6-yl]-3-[(1R)-1-phenylethyl]urea] | 8.79
12 | Cc1nc(NC(=O)N[C@H](C)c2ccccc2)cc2[nH]nc(-c3ccnc(F)c3)c12 [Example 2, 1-[3-(2-fluoropyridin-4-yl)-4-methyl-1H-pyrazolo[4,3-c]pyridin-6-yl]-3-[(1R)-1-phenylethyl]urea] | 8.91
13 | CC(C)(O)[C@@H](NC(=O)Nc1cc2[nH]nc(C3CC3)c2c(CO)n1)c1ccc(F)cc1 [Example 7, 1-[3-cyclopropyl-4-(hydroxymethyl)-1H-pyrazolo[4,3-c]pyridin-6-yl]-3-[(1S)-1-(4-fluorophenyl)-2-hydroxy-2-methylpropyl]urea] | 9.08
14 | C[C@@H](NC(=O)Nc1cc2[nH]nc(-c3ccnc(F)c3)c2c(CO)n1)c1ccccc1 [Example 3, (R)-1-(3-(2-fluoropyridin-4-yl)-4-(hydroxymethyl)-1H-pyrazolo[4,3-c]pyridin-6-yl)-3-(1-phenylethyl)urea] | 9.04
15 | Cc1cc(-c2n[nH]c3cc(NC(=O)N[C@H](COC(F)F)c4ccccc4)nc(CO)c23)ccn1 [Example 10, 1-[(1S)-2-(difluoromethoxy)-1-phenylethyl]-3-[4-(hydroxymethyl)-3-(2-methylpyridin-4-yl)-1H-pyrazolo[4,3-c]pyridin-6-yl]urea] | 9.18
16 | C[C@@H](NC(=O)Nc1cc2[nH]nc(-c3ccc(F)cc3)c2c(CO)n1)c1ccccc1 [Example 11, 1-[3-(4-fluorophenyl)-4-(hydroxymethyl)-1H-pyrazolo[4,3-c]pyridin-6-yl]-3-[(1R)-1-phenylethyl]urea] | 9.35
17 | Cc1cc(-c2n[nH]c3cc(NC(=O)N[C@H](C)c4ccccc4)nc(C)c23)ccn1 [Example 1, (R)-1-(4-Methyl-3-(2-methylpyridin-4-yl)-1H-pyrazolo[4,3-c]pyridin-6-yl)-3-(1-phenylethyl)urea] | 9.43

The remaining lines, values ahead:

Row | pIC50 | SMILES
18 | 7.88 | C[C@@H](NC(=O)Nc1cc2[nH]nc(C(F)(F)F)c2c(CO)n1)c1ccccc1 [Example 29, (R)-1-(4-(hydroxymethyl)-3-(trifluoromethyl)-1H-pyrazolo[4,3-c]pyridin-6-yl)-3-(1-phenylethyl)urea]
19 | 9.12 | CC(C)(O)[C@@H](NC(=O)Nc1cc2[nH]nc(C(F)F)c2c(CO)n1)c1ccccc1 [Example 22, (S)-1-(3-(difluoromethyl)-4-(hydroxymethyl)-1H-pyrazolo[4,3-c]pyridin-6-yl)-3-(2-hydroxy-2-methyl-1-phenylpropyl)urea]
20 | 8.26 | CC(O)c1n[nH]c2cc(NC(=O)N[C@H](C)c3ccccc3)nc(CO)c12 (stereo partly drawn) [Example 27, 1-(3-(1-hydroxyethyl)-4-(hydroxymethyl)-1H-pyrazolo[4,3-c]pyridin-6-yl)-3-((R)-1-phenylethyl)urea]
21 | 9.21 | Cc1nc(NC(=O)N[C@@H](c2ccccc2)C(C)(C)O)cc2[nH]nc(C(F)F)c12 [Example 21, (S)-1-(3-(difluoromethyl)-4-methyl-1H-pyrazolo[4,3-c]pyridin-6-yl)-3-(2-hydroxy-2-methyl-1-phenylpropyl)urea]
22 | 7.85 | CC(F)(F)c1n[nH]c2cc(NC(=O)N[C@@H](c3ccccc3)C(C)(C)O)nc(CO)c12 [Example 28, (S)-1-(3-(1,1-difluoroethyl)-4-(hydroxymethyl)-1H-pyrazolo[4,3-c]pyridin-6-yl)-3-(2-hydroxy-2-methyl-1-phenylpropyl)urea]
23 | 8.90 | C[C@@H](NC(=O)Nc1cc2[nH]nc(C(F)F)c2c(CO)n1)c1ccccc1 [Example 24, 1-[3-(difluoromethyl)-4-(hydroxymethyl)-1H-pyrazolo[4,3-c]pyridin-6-yl]-3-[(1R)-1-phenylethyl]urea]
24 | 8.73 | C[C@@H](NC(=O)Nc1cc2[nH]nc(CO)c2c(CO)n1)c1ccccc1 [Example 25, (R)-1-(3,4-bis(hydroxymethyl)-1H-pyrazolo[4,3-c]pyridin-6-yl)-3-(1-phenylethyl)urea]
25 | 9.31 | CC(C)(O)[C@@H](NC(=O)Nc1cc2[nH]nc(C(F)F)c2c(CO)n1)c1ccc(F)cc1 [Example 23, 1-[3-(difluoromethyl)-4-(hydroxymethyl)-1H-pyrazolo[4,3-c]pyridin-6-yl]-3-[(1S)-1-(4-fluorophenyl)-2-hydroxy-2-methylpropyl]urea]
26 | 7.90 | CC(=O)c1n[nH]c2cc(NC(=O)N[C@H](C)c3ccccc3)nc(CO)c12 [Example 26, (R)-1-(3-acetyl-4-(hydroxymethyl)-1H-pyrazolo[4,3-c]pyridin-6-yl)-3-(1-phenylethyl)urea]
